Assay results published in a melting point compilation (Tetko et al.; mined from patent text by program, amines drawn as free bases though some values may be those of a salt).

Structure (SMILES)	melting point [°C]
CC(C)(CCC(F)(F)C(F)(F)C(F)(F)C(F)(F)C(F)(F)C(F)(F)C(F)(F)C(F)(F)F)OC(=O)N1CCC(C(=O)O)CC1	140 to 142
COCOc1ccc(CSc2cnn(C(C)(C)C)c(=O)c2Cl)cc1	50 to 54
Cc1[nH]cnc1C=C1CCc2c(C)c3ccccc3n2C1=O	252 to 255
CC(C)(C)OC(=O)N1CCC(C(=O)c2nc3ccccc3n2Cc2ccccc2)CC1	122
CC(C)c1c(CCl)c(-c2ccc(F)cc2)nn1-c1ccccc1	124 to 128
COc1ccccc1NC(=O)c1ccncc1	79 to 80
O=c1[nH]c2ccc(-c3ncc[nH]3)cc2[nH]c1=O	> 300
Nc1nc(CCc2ccccc2)cc(C2CCN(C(=O)c3ccccc3)CC2)n1	104 to 106
CC1(C)OC(=O)Nc2ccc(-c3cccc(CC#N)c3)cc21	188 to 190
COc1ccc(S(N)(=O)=O)cc1C(=O)C(C)Br (stereo not given)	108 to 110
COc1cc(C(C)C)c2c(c1)S(=O)(=O)N(COc1cc(-c3ccccc3)nn1-c1ccccc1)C2=O	62 to 76
C1=NCC2Cc3ccccc3Cc3cccc1c32 (stereo not given)	91 to 93
CCCc1c(OCCCCc2nnn[nH]2)ccc(C(C)=O)c1O	114 to 115
Cc1cccc2ncc(C(=O)NC3CCCCCC3)c(=O)n12	172 to 174
CN=CN(C)c1ccccc1C#N	60 to 63
Cc1cc2nc(NC(=O)C(C)(C)C)[nH]c(=O)c2[nH]1	156 to 157
O=C(CCc1ccc(NC(=O)C(F)(F)F)c([N+](=O)[O-])c1)Nc1ccc(Cl)cc1Cl	193 to 194
COc1ccc(C(C)(O)c2cccc(OCc3nc(-c4ccccc4)oc3C)c2)c(OCCOC(C)=O)c1 (stereo not given)	144 to 145
CNC(=O)c1ccc(N2CCN(Cc3cnc4c(c3)[nH]c(=O)n3cccc43)CC2)c(Cl)c1	260 to 266
Cc1cc(C2=CCN(CCCC(=O)c3ccc(F)cc3)CC2)on1	96 to 98

Structure (SMILES)	melting point [°C]
C=CCn1cc(Cc2ccc(C(=O)O)cc2OC)c2cc(C=C(C)C(=O)NCCC)ccc21	84 to 90
OC(CCn1cccn1)c1ccc(OCc2ccccc2)cc1 (stereo not given)	80 to 85
CC(C)CCc1sc(NC(=O)c2cc([N+](=O)[O-])cn2C)nc1C(=O)O	296 to 300
N=C(N)Nc1nc(CSCCNc2ncccc2C(=O)O)cs1	141 to 145
Cc1nc(CCCCCn2cnc3c2c(=O)n(C)c(=O)n3C)no1	160 to 162
COc1cc2c(cc1Cl)C(c1ccccc1Cl)C(=O)N2 (stereo not given)	243 to 247
COc1ccc(C2CN(C)CCC2=NO)cc1 (stereo not given)	121 to 122
O=C1COc2c1ccc1ccccc21	191 to 192
O=C1CC(c2cccc(-n3cncn3)c2)=Nc2ccc(-c3ccc(F)cc3)cc2N1	241 to 245
Cc1cc(C)cc(Sc2c(C(C)C)c(=O)[nH]c(=O)n2CC2=CC(CO)C(CO)C2)c1 (stereo not given)	136 to 137
O=C(Nc1cccc(C(F)(F)F)c1)c1ccccc1NCCc1ccncc1	151 to 152
COc1ccc(-c2cccs2)c2c1c(CCN(C)C)cn2C	131 to 133
Cc1nccn1CC1CCc2c(c3ccccc3n2C)/C1=N/O (stereo not given)	231 to 233
CN1CCC(=C2c3ccccc3C=Cc3ccc(C(=O)OCn4ccnc4)cc32)CC1	118 to 121
COc1ccc(N2C(=O)C3=C(SCCO3)C2=O)nn1	157
COCc1cc(=O)c(Oc2ccc(F)cc2F)c(-c2ccc(S(C)(=O)=O)cc2)o1	124
CC(=O)NC1CCN(c2c(F)cc3c(=O)c(C(=O)O)cn4c3c2CCC4C)CC1 (stereo not given)	274 to 277
O=C(CCCN1CCC(O)CC1)c1ccccc1	101 to 102
CCCCn1c(=O)c2c(ncn2S(=O)(=O)c2ccc(OC)c(OC)c2)n(CCCC)c1=O	134 to 135
CC1(C)OC(=O)c2ccc(CO)cc21	59 to 63

Structure (SMILES)	melting point [°C]
O=C(O)c1ccccc1Nc1ccnn1-c1ccccn1	216 to 218
N#Cc1c(F)cccc1S(=O)(=O)N(Cl)Cl	149 to 152
Nc1cc(-c2ccc([N+](=O)[O-])c(N)c2)ccc1[N+](=O)[O-]	226
CCCc1nc(C#N)c(N)n1CC(C)C	135 to 136
CC(=NOCC(=O)O)c1ccc(NS(C)(=O)=O)c(Oc2ccc(F)cc2F)c1	174 to 175
CN(C)SN(C)C(=O)ON=C1SCC(=O)NC1(C)C	165 to 167
CC1OC(n2cc(F)c(NC(=O)c3ccc4c(c3)OCO4)nc2=O)C(O)C1O (stereo not given)	124 to 125
CN1C(=O)C(N)=C(C#N)C1=O	284
COc1ccc(CC(=O)NCCc2ccc([N+](=O)[O-])cc2)cc1	109 to 110
O=C(O)CCc1ccc2c(c1)CCc1ccc(C(=O)O)cc1S2	233 to 235
O=C(CC(F)(F)F)N[C@H]1CC[C@H](CCN2CCN(c3nccc4c3CCO4)CC2)CC1	196
CC(C)(C)c1nc(C=Cc2cccnc2)ncc1O	150 to 151
Oc1ncc(-c2ccc(Cl)cc2)cn1	324 to 327
COc1cc(OC)nc(NC(=O)OC(C)C)n1	51 to 54
NC(c1ccc(Cl)cc1Cl)P(O)O (stereo not given)	244
O=C1CCC(N2Cc3c(OCc4nc(CN5CCOCC5)cs4)cccc3C2=O)C(=O)N1 (stereo not given)	218 to 220
CCOCCNC(=O)n1sc(OCC)nc1=O	< 50
O=C(O)C1CSC(c2cc([N+](=O)[O-])ccc2OCCO[N+](=O)[O-])N1 (stereo not given)	99 to 101

The remaining lines, values ahead:

melting point [°C]	Structure (SMILES)
117 to 118	C=CCC1=C(O)C(C)=CC(C)(OC(C)=O)C1C (stereo not given)
252	O=C1NCC(=O)c2ncn(C3OC(COC(=O)c4ccccc4)C(OC(=O)c4ccccc4)C3OC(=O)c3ccccc3)c2N1 (stereo not given)
99 to 100	CCC(O)(CC(N)=O)c1ccc(Cl)c(Cl)c1 (stereo not given)
120 to 125	Cc1c(-c2ccc(OC(C)C)cc2)n(Cc2ccc(OCCN3CCCCC3)cc2)c2ccc(O)cc12
225 to 226	Cn1c(=O)c(NC(=O)Nc2ccc(F)cc2F)c(-c2ccccc2Cl)c2cccnc21
260 to 262	CCCn1c(=O)c2cc(C(=O)O)cn2c2ccccc21
124	CCOC(=O)N1CCN(c2ccc(Cl)nn2)CC1
136 to 138	Cc1cc2c([C@@H]3C[C@H]3CNC(=O)C(F)(F)F)cccn2n1 (relative stereo)
155 to 160	CS(=O)(=O)c1ccc(C(CC2CCCC2)C(=O)Nc2ncc(C(N)=O)s2)cc1 (stereo not given)
104 to 110	CS(=O)(=O)c1ccc(-n2nc(CNC(=O)NC3CCCCCC3)cc2-c2ccccc2)cc1
158 to 160	CN(C)C(=O)C(CCO)C1(C)OCCc2c1[nH]c1ccccc21 (stereo not given)
76 to 78	CCCC(=O)C1C(=O)CC(c2ccc(C)cc2)CC1=O (stereo not given)
172 to 173	O=C1NCC2CC1c1ccccc12 (stereo not given)
178	COC(=N)Nc1nc(Cl)cc(Cl)n1
67 to 70	CCc1cn(CC)cc(-c2cccc(C(F)(F)F)c2)c1=O
178 to 180	CCc1cccc(C(C)C)c1NC(=O)NCC1(c2ccccc2)CCCCC1
80 to 82	COC(=O)C(C#N)c1cccc2ccc(OC)cc12 (stereo not given)
143	Clc1ccc(C2(c3ccc4noc(-c5ccccc5)c4c3)OCCO2)cc1
142 to 145	O=C(O)c1c(Cl)ccc(S(=O)(=O)N2CCCCC2)c1Cl
197 to 199	O=C(O)c1ccc2c(c1)CN(C(=O)OCc1ccccc1)C2
188 to 190	CCOCc1nc2c(N)nc(C)c(C)c2n1CCNC(=O)NC1CCCCC1
230	CCn1cc(C(=O)O)c(=O)c2cc(F)c(N3CCNC(c4c[nH]c5ccccc45)C3)cc21 (stereo not given)
177 to 179	CN(c1cccc(-c2ccnc3c([N+](=O)[O-])cnn23)c1)S(=O)(=O)c1ccccc1
156 to 159	COc1ccc(C(=O)N2CCN(c3cc4ccccc4cn3)CC2)cc1

melting point [°C]	Structure (SMILES)
100 to 101	O=[N+]([O-])CC(O)c1nn(Cc2ccccc2)c2ccccc12 (stereo not given)
130 to 131	COc1ccc(C=O)c(Oc2ccc(Cl)cc2[N+](=O)[O-])c1
125 to 127	CCOC(=O)/C=C/c1cnc(Cl)nc1
193 to 196	COc1ccc2cc(NC(C)=O)cc(C)c2n1
91	CCOC(=O)C(Cl)=Cc1cc([N+](=O)[O-])ccc1Cl
119	CCOC(=O)C1(Cc2cccnc2)CCCN(C(=O)c2ccc(Nc3nccc(Nc4ccc(F)cc4)n3)cc2)C1 (stereo not given)
163 to 166	NC(=O)N1CC(OCc2cccc(Cl)c2)C1
91.5	C=CCCCC(C#N)(C#N)Cc1ccc(C#N)cc1
213 to 215	COc1ccc2cc3c(=O)n(C)cc(C(=O)NCCN(C)C)c3nc2c1
158 to 160	CC(C)OC12NC(=O)C(C)(C(C)C)N1C(=O)c1cccnc12 (stereo not given)
73 to 75	Cc1nc(-c2cc(N)ccc2F)cs1
77 to 79	CCN(CC)c1nc(Cl)nc(Cl)n1
43 to 45	COC(=O)C1SC=CC1Sc1ccccc1 (stereo not given)
119 to 121	COC1(c2cccc(S(=O)(=O)c3ccc(N(C)C(C)=O)c(Cl)c3)c2)CCOCC1
170 to 172	Nc1ccc(S(=O)(=O)CI)cc1
285 to 287	Cc1ccccc1C=C1CCn2c1nc1ccc(C(=O)O)cc1c2=O
147 to 149	Cc1nc2c(s1)CN=C(c1ccccc1F)c1cc(Cl)ccc1-2
125 to 126	CC(C)c1nn(-c2ccc(C(F)(F)F)cn2)cc1CCCCOc1ccccc1CC(=O)O
74	COc1cc(OS(=O)(=O)C(F)(F)F)c(Cl)c(C)c1Cl
175 to 177	COc1cc(OC)nc(CC(=O)O)n1
180	CCCC1=C(C#N)C(c2ccccc2Cl)c2c(n[nH]c2CC(OC)OC)N1 (stereo not given)
> 270	CC(C)(C)OC(=O)Nc1ccc(O)c(C(=O)O)c1
191 to 192	O=C(CS(=O)Cc1ccc(Cl)c(Cl)c1)NO (stereo not given)
